We go through two compounds from ChEMBL document CHEMBL4190219, “Detection of a Toxic Methylated Derivative of Phomopsin A Produced by the Legume-Infesting Fungus Diaporthe toxica” (J Nat Prod, 2017).

Data set [1] can be described thus: Cytotoxicity against human HepG2 cells assessed as cell viability at 0.1 uM after 72 hrs by WST1 assay (reference value: 100%). Type of data set: cell-based. Particulars: read-out: Activity; call rule not given here.
The nature of data set [2]: Cytotoxicity against human HepG2 cells assessed as cell viability at 0.4 uM after 72 hrs by WST1 assay (reference value: 100%). It is filed as cell-based. Particulars: read-out: Activity.
A short description of data set [3]: Cytotoxicity against human HepG2 cells assessed as cell viability at 1.3 uM after 72 hrs by WST1 assay (reference value: 100%). Type of data set: cell-based. As to conditions: read-out: Activity. Background: Tetrazolium assays rely on reduction of a dye to a coloured formazan, in cell work by metabolically active cells.
Data set [4] in a line: Cytotoxicity against human HepG2 cells assessed as cell viability at 2.5 uM after 72 hrs by WST1 assay (reference value: 100%). Type of data set: cell-based. As to conditions: read-out: Activity.
A short description of data set [5]: Cytotoxicity against human HepG2 cells assessed as cell viability at 5.1 uM after 72 hrs by WST1 assay (reference value: 100%). Type of data set: cell-based. Particulars: read-out: Activity.
Data set [6] in a line: Cytotoxicity against human HepG2 cells assessed as cell viability at 10.1 uM after 72 hrs by WST1 assay (reference value: 100%). Type of data set: cell-based. As to conditions: read-out: Activity.
Data set [7] relates to HepG2. Nature of the data set: Cytotoxicity against human HepG2 cells assessed as cell vitality at 0.1 uM after 72 hrs by trypan blue staining based assay (reference value: 1.1 +/- 0.5%). Particulars: hepg2, 72 h.
Data set [8] relates to HepG2. Nature of the data set: Cytotoxicity against human HepG2 cells assessed as cell vitality at 0.4 uM after 72 hrs by trypan blue staining based assay (reference value: 1.1 +/- 0.5%). As to conditions: hepg2, 72 h.
The test system of data set [9] is HepG2. Nature of the data set: Cytotoxicity against human HepG2 cells assessed as cell vitality at 1.3 uM after 72 hrs by trypan blue staining based assay (reference value: 1.1 +/- 0.5%). Particulars: hepg2, 72 h.
Data set [10] concerns HepG2. Nature of the data set: Cytotoxicity against human HepG2 cells assessed as cell vitality at 2.5 uM after 72 hrs by trypan blue staining based assay (reference value: 1.1 +/- 0.5%). Particulars: hepg2, 72 h.
The nature of data set [11]: Cytotoxicity against human HepG2 cells assessed as cell vitality at 5.1 uM after 72 hrs by trypan blue staining based assay (reference value: 1.1 +/- 0.5%). As to conditions: read-out: Activity.
Data set [12] can be described thus: Cytotoxicity against human HepG2 cells assessed as cell vitality at 10.1 uM after 72 hrs by trypan blue staining based assay (reference value: 1.1 +/- 0.5%). Particulars: read-out: Activity.
The subject of data set [13] is HepG2. As to the kind of experiment: Cytotoxicity against human HepG2 cells assessed as cell viability after 72 hrs by WST1 assay. Type of data set: cell-based. Particulars: for IC50: Homo sapiens, HepG2, 72 h; for Activity: human, hepg2, 72 h.
For data set [14], the system named is HepG2. As to the kind of experiment: Cytotoxicity against human HepG2 cells assessed as cell vitality after 72 hrs by trypan blue staining based assay. Particulars: hepg2, 72 h.

The term IC50 denotes the midpoint of a concentration-inhibition curve.

Consider `C=C(C)[C@@H]1NC(=O)[C@H](NC)[C@H](O)c2cc(Cl)c(O)c(c2)O[C@](C)(CC)[C@@H](C(=O)N2CC=C[C@H]2C(=O)N/C(C(=O)N/C(=C/C(=O)O)C(=O)O)=C(\C)CC)NC1=O`, for which the viability at 72 h, 0.1 µM in data set [1] worked out at 106%. In addition, in [2], the viability at 72 h, 0.4 µM came to 105%. The viability at 72 h, 1.3 µM in data set [3] amounted to 99%. Besides, in data set [4], the viability at 72 h, 2.5 µM stood at 83%. The viability at 72 h, 5.1 µM stood at 57% in [5] and 9% in [11]. For the same compound, the viability at 72 h, 10.1 µM in data set [6] stood at 48%; in data set [12] it was 17%. For the same compound, the Activity was 0.5% in the data set with HepG2 [7]; 1.1% in the data set on HepG2 [8]; 1.6% in the data set on HepG2 [9]; 4.3% with HepG2 [10]; “Dose-dependent effect” in the data set with HepG2 [13]; “Dose-dependent effect” in the data set on HepG2 [14]. Also, the IC50 in the data set with HepG2 [13] is 8.1 µM.
Take `C=C(C)[C@@H]1NC(=O)[C@H](N(C)C)[C@H](O)c2cc(Cl)c(O)c(c2)O[C@](C)(CC)[C@@H](C(=O)N2CC=C[C@H]2C(=O)N/C(C(=O)N/C(=C/C(=O)O)C(=O)O)=C(\C)CC)NC1=O`: the viability at 72 h, 0.1 µM in [1] worked out at 105%. Moreover, in data set [2], the viability at 72 h, 0.4 µM came to 101%. Also, the viability at 72 h, 1.3 µM in data set [3] worked out at 85%. In addition, the viability at 72 h, 2.5 µM in [4] was found to be 61%. For the same compound, the viability at 72 h, 5.1 µM in [5] was 46%; in data set [11] it was 18.4%. Also, the results for the viability at 72 h, 10.1 µM in data set [6] and in [12] were 37% and 29.8%, respectively. The Activity is 0.9% in the data set on HepG2 [7]; 0.9% in the data set on HepG2 [8]; 4.7% with HepG2 [9]; 7.7% with HepG2 [10]; “Dose-dependent effect” in the data set on HepG2 [13]; “Dose-dependent effect” with HepG2 [14]. Moreover, in the data set on HepG2 [13], the IC50 is 6.1 µM.
